Source: patent US7919487B2, “Heteroaryl compounds” (Synta Pharmaceuticals Corporation, priority 2004, dated 2011)

The compounds below were run on IL-12 production in human PBMC or THP-1 cells (assay: Human in vitro assay: inhibition of IL-12 production in human PBMC or THP-1 cells (ELISA)). Conditions: THP-1, human PBMC or THP-1 cells, IFNγ plus LPS or SAC stimulation, representative in vitro data.
Type: cell-based
Description: The biological activities of the compounds of the invention can be evaluated by a number of cell-based assays. One of such assays can be conducted using cells from human peripheral blood mononuclear cells (PBMC) or human monocytic cell line (THP-1). The cells are stimulated with a combination of human interferon-γ (IFNγ) and lipopolysaccharide or a combination of IFNγ and Staphylococcus aureus Cowan I in the presence of a test compound. The level of inhibition of IL-12 production can be measured by determining the amount of p70 by using a sandwich ELISA assay with anti-human IL-12 antibodies. IC50 of the test compound can then be determined. Specifically, PBMC or THP-1 cells are incubated with the test compound. Cell viability was assessed using the bioreduction of MTS [3-(4,5-dimethylthiazol-2-yl)-5-(3-carboxymethoxyphenyl)-2-(4-sulfophenyl)-2H-tetrazolium] (Promega, Madison, Wis.).
Reagents. Staphylococcus aureus Cowan I (SAC) was obtained from Calbiochem (La Jolla, Calif.), and lipopolysaccharide (LPS, Serratia marscencens) was obtained from Sigma (St Louis, Mo.). Human and mouse recombinant IFNγ were purchased from Boehringer Mannheim (Mannheim, Germany) and Pharmingen (San Diego, Calif.), respectively.
Human In Vitro Assay. Human PBMC were isolated by centrifugation using Ficoll-Paque (Pharmacia Biotech, Uppsala, Sweden) and prepared in RPMI medium supplemented with 10% fetal calf serum (FCS), 100 U/mL penicillin, and 100 μg/mL streptomycin. PBMC were plated in wells of a 96-well plate at a concentration of 5×10^5 cells/well, and primed by adding IFNγ (30 U/mL) for 22 h and stimulated by adding LPS (1 μg/mL), or by adding IFNγ (100 U/mL) and then stimulated by adding SAC (0.01%). A test pyrimidine compound was dissolved in DMSO, and added to wells of the 96-well plate. The final DMSO concentration was adjusted to 0.25% in all cultures, including the compound-free control. Human THP-1 cells were plated in wells, primed by adding IFNγ (100 U/mL) for 22 h and stimulated by adding SAC (0.025%) in the presence of different concentrations of the pyrimidine compound. Cell-free supernatants were taken 18 h later for measurement of cytokines. Cell viability was assessed using the bioreduction of MTS. Cell survival was estimated by determining the ratio of the absorbance in compound-treated groups versus compound-free control.
The supernatant was assayed for the amount of IL-12p40, IL-12p70, or IL-10 by using a sandwich ELISA with anti-human antibodies, i.e., a Human IL-12 p40 ELISA kit from R&D Systems (Berkeley, Calif.), and a Human IL-12 p70 or IL-10 ELISA kit from Endogen (Cambridge, Mass.). Assays were based on the manufacturer's instructions.
The biological activities of compounds were tested on human PBMC or THP-1 cells.
`CSc1nc(NC(=O)Nc2cccc(C)c2)nc(-c2cccnc2)n1` [Compound 145, 1-(4-(methylthio)-6-(pyridin-3-yl)-1,3,5-triazin-2-yl)-3-m-tolylurea] was tested, and the IC50 was > 1000 nM. With `Cc1[nH]c2ccc(NC(=O)c3cc(NCCN4CCOCC4)nc(N(C)C)n3)cc2c1C` [Compound 147, N-(2,3-dimethyl-1H-indol-5-yl)-2-(dimethylamino)-6-(2-morpholinoethylamino)pyrimidine-4-carboxamide] the IC50 was > 1000 nM. `Cc1[nH]c2ccc(NC(=O)c3cc(NCCN4CCOCC4)nc(N4CCSC4)n3)cc2c1C` [Compound 148, N-(2,3-dimethyl-1H-indol-5-yl)-6-(2-morpholinoethylamino)-2-(thiazolidin-3-yl)pyrimidine-4-carboxamide] showed an IC50 of 55 nM.
